Laboratory results reported in patent US8895596B2, “Cyclic benzimidazole derivatives useful as anti-diabetic agents” (Merck Sharp & Dohme Corp, priority 2010, dated 2014).

Key:
ob/ob and db/db mice = conditions: following 8 weeks of administration; cited from earlier work
[1] = biological target: recombinant human AMPK complex 1 (containing α1β1γ1) (Homo sapiens, UniProt Q13131+Q9Y478); test: in vitro AMPK activation assay (AMPKSAMSF); format: biochemical; conditions: recombinant human AMPK complex 1 (α1β1γ1); for EC50: table
Protocol: AMPKSAMSF (in vitro AMPK Activation Assay)
The recombinant human AMPK complex 1 (containing α1β1γ1) was obtained from baculovirus expression system. Recombinant viruses were generated by cotransfection of AMPK/pBacPak9 clones with Baculogold baculovirus DNA (Pharmingen) in spodoptera frugiperda 21 cells according to the manufacturer's instructions. Each round of virus amplification was performed for 5 days in Grace's medium containing 10% serum. Virus that had been subjected to three rounds of amplification was used for all protein production procedures. To express the AMPK complex, sf21 cells were adapted to serum free medium (SF900 II, Invitrogen) by sequential dilution from serum containing stocks into SF900II medium and maintained in shaker flasks at 90 rpm at 27° C. The recombinant AMPK enzyme complex was produced by triple infection, one recombinant virus for each of the subunits, in sf21 cells under serum free conditions. Cells were infected in log phase, 1×10^6 cells/ml, at a multiplicity of infection […] were harvested by centrifugation at 10,000×g for 15 minutes after 72 hours of infection with viruses. The insect cell pellet from 2 liters of culture was resuspended in 50 ml lysis buffer (20 mM Tris-HCl, 50 mM NaCl, 50 mM NaF, 30 mM Na PPi, 0.25 M sucrose, 10 mM ZnCl2, 2 mM DTT, 0.4 mg/ml digitonin) and subjected to two cycles of freeze-thaw lysis in a dry-ice ethanol bath. Insoluble material was removed by centrifugation at 10,000×g and the supernatant was fractionated with use of polyethylene glycol (PEG). The protein fraction precipitating between 2.5 and 6% PEG was used for further purification using a Blue-Sepharose step (Zhou et al, J. Clin. Invest. 108, 1167-1174, 2001).
The in vitro AMPK activation assay is performed in a volume of 30 μl in a 384-well plate. Enzyme reactions were assembled in the microtiter plate by adding 15 μl of 2× enzyme in assay buffer (20 mM HEPES, pH 7.3, 5 mM MgCl2, 3 mM DTT, 0.01% Brij 35 and CamK Kinase, to activate AMPK) to wells which contained either DMSO or compound. The reaction was initiated with the addition of […] substrate mixture containing 200 μM ATP, and 3.0 μM fluorescently labeled SAMS (5-FAM-HMRSAMSGLHLVKRR-COOH) in assay buffer. After 45-minute incubation at 25° C., the reaction was stopped by the addition of 70 μl stop buffer (100 mM HEPES, pH 7.3, 40 mM EDTA, 0.015% Brij 35). Phosphorylated 5-FAM SAMS product is assessed using a Caliper EZ Reader LabChip microfluidics reader. Product conversion is determined by calculating the peak heights of the substrate and product and reporting the product/(product+substrate) peak ratio. The 10-point titration data were expressed as maximum AMP activation. The results were plotted using 4 parameter fit and the inflection point reflecting 50% of the maximum activation was reported as the EC50.

Sequence of recombinant human AMPK complex 1 (containing α1β1γ1) (Q13131 whole entry): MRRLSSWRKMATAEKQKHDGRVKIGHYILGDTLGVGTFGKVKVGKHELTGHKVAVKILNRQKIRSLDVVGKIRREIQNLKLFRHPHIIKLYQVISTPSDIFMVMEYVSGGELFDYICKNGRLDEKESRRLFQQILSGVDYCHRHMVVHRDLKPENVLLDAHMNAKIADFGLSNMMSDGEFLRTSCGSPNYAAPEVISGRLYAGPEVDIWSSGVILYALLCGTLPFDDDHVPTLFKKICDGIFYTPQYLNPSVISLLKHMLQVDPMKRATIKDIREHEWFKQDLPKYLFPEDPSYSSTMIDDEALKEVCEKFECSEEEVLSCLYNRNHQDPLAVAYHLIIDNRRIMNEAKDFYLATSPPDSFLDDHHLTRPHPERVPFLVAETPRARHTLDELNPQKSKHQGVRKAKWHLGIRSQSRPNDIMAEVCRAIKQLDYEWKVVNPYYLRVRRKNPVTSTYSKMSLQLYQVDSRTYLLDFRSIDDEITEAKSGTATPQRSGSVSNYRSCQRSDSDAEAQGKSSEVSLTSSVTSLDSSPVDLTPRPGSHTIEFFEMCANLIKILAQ
Sequence of recombinant human AMPK complex 1 (containing α1β1γ1) (Q9Y478 whole entry): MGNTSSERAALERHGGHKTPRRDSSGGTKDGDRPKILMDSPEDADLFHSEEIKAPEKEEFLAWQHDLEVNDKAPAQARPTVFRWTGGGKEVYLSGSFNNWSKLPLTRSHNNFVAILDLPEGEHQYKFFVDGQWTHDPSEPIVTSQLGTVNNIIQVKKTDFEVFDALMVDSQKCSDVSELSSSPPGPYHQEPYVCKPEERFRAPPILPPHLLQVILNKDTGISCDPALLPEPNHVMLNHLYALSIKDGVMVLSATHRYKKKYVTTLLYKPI
Sequence of recombinant human AMPK complex 1 (containing α1β1γ1) (P54619 whole entry partner): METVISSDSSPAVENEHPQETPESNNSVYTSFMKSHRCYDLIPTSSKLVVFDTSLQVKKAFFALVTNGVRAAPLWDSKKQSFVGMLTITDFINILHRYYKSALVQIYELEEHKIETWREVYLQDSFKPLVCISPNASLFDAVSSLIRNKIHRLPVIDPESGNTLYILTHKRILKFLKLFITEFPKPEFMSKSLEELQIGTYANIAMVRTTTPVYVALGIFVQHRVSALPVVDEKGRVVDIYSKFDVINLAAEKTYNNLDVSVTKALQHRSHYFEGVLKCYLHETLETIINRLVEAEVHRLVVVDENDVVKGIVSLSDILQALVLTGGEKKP

Row | SMILES | blood glucose reduction (ob/ob and db/db mice) | % Maximum AMP Activation of human AMPK Complex 1 [1] | EC50 [1]
1 | NC(=O)c1ncn([C@@H]2O[C@H](CO)[C@@H](O)[C@H]2O)c1N [AICAR] | 35% | – | –
2 | O=C(O)C1CC1COc1nc2c(F)c(-c3ccc(-c4ccccc4)cc3)c(F)cc2[nH]1 (stereo not drawn) [Example 19, 2-({[5-(biphenyl-4-yl)-4,6-difluoro-1H-benzimidazol-2-yl]oxy}methyl)cyclopropane-carboxylic acid] | – | 631% | 17 nM
3 | O=C(O)C1CCC(Oc2nc3c(F)c(-c4ccc(-c5ccccc5)cc4)c(F)cc3[nH]2)CC1 (stereo not drawn) [Example 15, 4-{[5-(biphenyl-4-yl)-4,6-difluoro-1H-benzimidazol-2-yl]oxy}-cyclohexane carboxylic acid] | – | 653% | 10 nM
4 | O=C(O)C1CCC(Oc2nc3c(F)c(-c4ccc5c(ccn5C5CC5)c4)c(F)cc3[nH]2)CC1 (stereo not drawn) [Example 21, 4-{[5-(1-Cyclopropyl-1H-indol-5-yl)-4,6-difluoro-1H-benzimidazol-2-yl]oxy}cyclohexanecarboxylic acid] | – | 504% | 4 nM
5 | O=C(O)C1CCCC(Oc2nc3c(F)c(-c4ccc(-c5ccccc5)cc4)c(F)cc3[nH]2)C1 (stereo not drawn) [Example 16, 3-{[5-(biphenyl-4-yl)-4,6-difluoro-1H-benzimidazol-2-yl]oxy}cyclohexanecarboxylic acid] | – | 617% | 6 nM
6 | O=C(O)C1CCC(Oc2nc3c(F)c(-c4ccc(-c5ccc(C(=O)N6CCC(O)CC6)cc5)cc4)c(F)cc3[nH]2)CC1 (single isomer, unassigned) [Example 20, 4-[(4,6-difluoro-5-{4′-[(4-hydroxypiperidin-1-yl)carbonyl]biphenyl-4-yl}-1H-benzimidazol-2-yl)oxy]cyclohexanecarboxylic acid] | – | 642% | 10 nM
7 | O=C(O)C1CCC(Oc2nc3c(F)c(-c4ccc(-c5ccccc5)cc4)c(F)cc3[nH]2)C1 (stereo not drawn) [Example 17, 3-{[5-(biphenyl-4-yl)-4,6-difluoro-1H-benzimidazol-2-yl]oxy}cyclopentanecarboxylic acid] | – | 593% | 13 nM
8 | O=C(O)C1CC(Oc2nc3c(F)c(-c4ccc(-c5ccccc5)cc4)c(F)cc3[nH]2)C1 (stereo not drawn) [Example 18, 3-{[5-(biphenyl-4-yl)-4,6-difluoro-1H-benzimidazol-2-yl]oxy}cyclobutanecarboxylic acid] | – | 538% | 14 nM
